# Assay results from paper PMC5218480 (PLoS ONE, 2017).
# Tested on: MV-4-11 cells
# Test: Gene expression microarray analysis (Affymetrix PrimeView) and GSEA
# Assay type: cell-based, human
# Design: RFU PODN (11730768_x_at) / Fold change /veh PODN (11730768_x_at) / RFU LINC00158 (11744669_a_at) / Fold change /veh LINC00158 (11744669_a_at) / RFU DUSP10 (11751237_a_at) / Fold change /veh DUSP10 (11751237_a_at) / RFU ID3 (11757404_x_at) / Fold change /veh ID3 (11757404_x_at) / RFU PLEKHG5 (11737974_s_at) / Fold change /veh PLEKHG5 (11737974_s_at) / RFU LRRC4B (11730491_at) / Fold change /veh LRRC4B (11730491_at) / RFU GIMAP4 (11747438_a_at) / Fold change /veh GIMAP4 (11747438_a_at) / RFU KRT8 (11758183_x_at) / Fold change /veh KRT8 (11758183_x_at) / RFU CNN1 (11734310_a_at) / Fold change /veh CNN1 (11734310_a_at) / RFU VPS37D (11726825_at) / Fold change /veh VPS37D (11726825_at) / RFU C10orf10 (11716522_x_at) / Fold change /veh C10orf10 (11716522_x_at) / RFU KIR2DL2 /// KIR2DL4 /// KIR2DL5A /// KIR2DL5B /// KIR2DS1 /// KIR2DS2 /// KIR2DS3 /// KIR2DS4 /// KIR3DL3 /// KIR3DL3 /// KIR3DS1 (11738374_at) / Fold change /veh KIR2DL2 /// KIR2DL4 /// KIR2DL5A /// KIR2DL5B /// KIR2DS1 /// KIR2DS2 /// KIR2DS3 /// KIR2DS4 /// KIR3DL3 /// KIR3DL3 /// KIR3DS1 (11738374_at) / RFU C1QL1 (11718748_at) / Fold change /veh C1QL1 (11718748_at) / RFU TMPRSS4 (11747572_a_at) / Fold change /veh TMPRSS4 (11747572_a_at) / RFU HAMP (11756126_x_at) / Fold change /veh HAMP (11756126_x_at) / RFU RNFT2 (11725882_a_at) / Fold change /veh RNFT2 (11725882_a_at) / RFU NR4A2 (11747474_a_at) / Fold change /veh NR4A2 (11747474_a_at) / RFU ABCC12 (11746883_a_at) / Fold change /veh ABCC12 (11746883_a_at) / RFU TMEM136 (11760407_x_at) / Fold change /veh TMEM136 (11760407_x_at) / RFU CLDN22 /// WWC2 (11732394_at) / Fold change /veh CLDN22 /// WWC2 (11732394_at) / RFU HLA-DPB1 (11760878_x_at) / Fold change /veh HLA-DPB1 (11760878_x_at) / RFU SPINT1 (11716480_a_at) / Fold change /veh SPINT1 (11716480_a_at) / RFU GAP43 (11754022_s_at) / Fold change /veh GAP43 (11754022_s_at) / RFU A4GNT (11735810_at) / Fold change /veh A4GNT (11735810_at) / RFU PRB3 (11715151_x_at) / Fold change /veh PRB3 (11715151_x_at) / RFU TUBB4B (11761932_at) / Fold change /veh TUBB4B (11761932_at) / RFU CAPN14 (11732068_a_at) / Fold change /veh CAPN14 (11732068_a_at) / RFU TMCC2 (11721928_a_at) / Fold change /veh TMCC2 (11721928_a_at) / RFU IRGQ (11745062_a_at) / Fold change /veh IRGQ (11745062_a_at) / RFU FAM174B (11720279_a_at) / Fold change /veh FAM174B (11720279_a_at) / RFU TMPRSS4 (11748680_a_at) / Fold change /veh TMPRSS4 (11748680_a_at) / RFU FAM212B (11763350_a_at) / Fold change /veh FAM212B (11763350_a_at) / RFU PLEKHG5 (11743358_a_at) / Fold change /veh PLEKHG5 (11743358_a_at) / RFU ZSCAN30 (11745921_a_at) / Fold change /veh ZSCAN30 (11745921_a_at) / RFU CMKLR1 (11741424_a_at) / Fold change /veh CMKLR1 (11741424_a_at) / RFU LOC101060620 /// MAPK8IP1 (11723275_at) / Fold change /veh LOC101060620 /// MAPK8IP1 (11723275_at) / RFU SPTSSB (11747773_x_at) / Fold change /veh SPTSSB (11747773_x_at) / RFU PRSS12 (11739890_at) / Fold change /veh PRSS12 (11739890_at) / RFU BIN1 (11741810_x_at) / Fold change /veh BIN1 (11741810_x_at) / RFU WNT11 (11732464_a_at) / Fold change /veh WNT11 (11732464_a_at) / RFU C10orf10 (11716521_a_at) / Fold change /veh C10orf10 (11716521_a_at) / RFU C5orf56 (11738089_at) / Fold change /veh C5orf56 (11738089_at) / RFU CYB561 (11721691_x_at) / Fold change /veh CYB561 (11721691_x_at) / RFU ANKRD19P (11752326_a_at) / Fold change /veh ANKRD19P (11752326_a_at) / RFU OR2T12 /// OR2T33 /// OR2T8 (11738714_s_at) / Fold change /veh OR2T12 /// OR2T33 /// OR2T8 (11738714_s_at) / RFU VCAN (11748164_a_at) / Fold change /veh VCAN (11748164_a_at) / RFU JSRP1 (11732532_at) / Fold change /veh JSRP1 (11732532_at) / RFU KRTAP10-11 (11738290_x_at) / Fold change /veh KRTAP10-11 (11738290_x_at) / RFU MYO3A (11730013_a_at) / Fold change /veh MYO3A (11730013_a_at) / RFU EBF3 (11725865_a_at) / Fold change /veh EBF3 (11725865_a_at) / RFU CAMK2N1 (11719241_x_at) / Fold change /veh CAMK2N1 (11719241_x_at) / RFU C5orf56 (11738088_a_at) / Fold change /veh C5orf56 (11738088_a_at) / RFU OLFML3 (11715873_a_at) / Fold change /veh OLFML3 (11715873_a_at) / RFU LOC100653217 /// NTM (11731650_a_at) / Fold change /veh LOC100653217 /// NTM (11731650_a_at) / RFU MAPK11 (11762145_a_at) / Fold change /veh MAPK11 (11762145_a_at) / RFU FIZ1 (11724087_x_at) / Fold change /veh FIZ1 (11724087_x_at) / RFU OASL (11726364_x_at) / Fold change /veh OASL (11726364_x_at) / RFU SOX15 (11748057_x_at) / Fold change /veh SOX15 (11748057_x_at) / RFU CD79A (11719716_a_at) / Fold change /veh CD79A (11719716_a_at) / RFU HIST1H1D (11736915_at) / Fold change /veh HIST1H1D (11736915_at) / RFU CASKIN2 (11723855_a_at) / Fold change /veh CASKIN2 (11723855_a_at) / RFU LOC730098 (11760151_x_at) / Fold change /veh LOC730098 (11760151_x_at) / RFU OR4N2 (11742367_at) / Fold change /veh OR4N2 (11742367_at) / RFU PRRT2 (11749266_a_at) / Fold change /veh PRRT2 (11749266_a_at) / RFU SNX32 (11753110_a_at) / Fold change /veh SNX32 (11753110_a_at) / RFU CDHR5 (11726645_a_at) / Fold change /veh CDHR5 (11726645_a_at) / RFU RCAN1 (11760418_a_at) / Fold change /veh RCAN1 (11760418_a_at) / RFU FAM167A (11723789_a_at) / Fold change /veh FAM167A (11723789_a_at) / RFU FAM26E (11764081_at) / Fold change /veh FAM26E (11764081_at) / RFU ISYNA1 (11749810_s_at) / Fold change /veh ISYNA1 (11749810_s_at) / RFU ACY1 (11761880_at) / Fold change /veh ACY1 (11761880_at) / RFU 11764098_at / Fold change /veh 11764098_at / RFU SAMD14 (11745864_x_at) / Fold change /veh SAMD14 (11745864_x_at) / RFU NPB (11741838_a_at) / Fold change /veh NPB (11741838_a_at) / RFU TMPRSS6 (11731388_a_at) / Fold change /veh TMPRSS6 (11731388_a_at) / RFU KRTAP10-2 (11738614_at) / Fold change /veh KRTAP10-2 (11738614_at) / RFU ARHGAP8 /// PRR5-ARHGAP8 (11727945_x_at) / Fold change /veh ARHGAP8 /// PRR5-ARHGAP8 (11727945_x_at) / RFU KRTAP5-7 /// NADSYN1 (11734609_at) / Fold change /veh KRTAP5-7 /// NADSYN1 (11734609_at) / RFU RASL12 (11751679_a_at) / Fold change /veh RASL12 (11751679_a_at) / RFU CDKN2B (11736163_a_at) / Fold change /veh CDKN2B (11736163_a_at) / RFU PRF1 (11729649_at) / Fold change /veh PRF1 (11729649_at) / RFU, ZNF638 /// ZNF638-IT1 / Fold change vs veh, ZNF638 /// ZNF638-IT1 / RFU, PANK3 / Fold change vs veh, PANK3 / RFU, SH3YL1 / Fold change vs veh, SH3YL1 / RFU, ZEB2 / Fold change vs veh, ZEB2 / RFU, NRIP1 / Fold change vs veh, NRIP1 / RFU, PTTG1IP / Fold change vs veh, PTTG1IP / RFU, CAPN2 / Fold change vs veh, CAPN2 / RFU, MED14 / Fold change vs veh, MED14 / RFU, SNORA58 / Fold change vs veh, SNORA58 / RFU, C1orf63 / Fold change vs veh, C1orf63 / RFU, LRRFIP1 / Fold change vs veh, LRRFIP1 / RFU, NDUFAF7 / Fold change vs veh, NDUFAF7 / RFU, SLC12A2 / Fold change vs veh, SLC12A2 / RFU, IBTK / Fold change vs veh, IBTK / RFU, ESF1 / Fold change vs veh, ESF1 / Fold change vs veh, TMEM50B / RFU, TAOK1 / Fold change vs veh, TAOK1 / RFU, ACBD3 / Fold change vs veh, ACBD3 / RFU, TMA16 / Fold change vs veh, TMA16 / RFU, RWDD3 / Fold change vs veh, RWDD3 / RFU, BCAT1 / Fold change vs veh, BCAT1 / RFU, EDEM3 / Fold change vs veh, EDEM3 / RFU, TMEM33 / Fold change vs veh, TMEM33 / RFU, WDR75 / Fold change vs veh, WDR75 / RFU, AHCTF1 / Fold change vs veh, AHCTF1 / RFU, TFRC / Fold change vs veh, TFRC / RFU, ZDHHC17 / Fold change vs veh, ZDHHC17 / RFU, NOM1 / Fold change vs veh, NOM1 / RFU, ARL8B / Fold change vs veh, ARL8B / RFU, ZBTB11 / Fold change vs veh, ZBTB11 / RFU, TAMM41 / Fold change vs veh, TAMM41 / RFU, KIAA1704 /// LOC100996395 / Fold change vs veh, KIAA1704 /// LOC100996395 / RFU, ING1 / Fold change vs veh, ING1 / RFU, TRMT61B / Fold change vs veh, TRMT61B / RFU, FUBP3 / Fold change vs veh, FUBP3 / RFU, TP53 / Fold change vs veh, TP53 / RFU, TNKS2 / Fold change vs veh, TNKS2 / RFU, ZFP14 / Fold change vs veh, ZFP14 / RFU, ACTR2 / Fold change vs veh, ACTR2 / RFU, PPP3R1 / Fold change vs veh, PPP3R1 / RFU, PIK3R1 / Fold change vs veh, PIK3R1 / RFU, HNRNPA1 / Fold change vs veh, HNRNPA1 / RFU, RNF170 / Fold change vs veh, RNF170 / RFU, ZNF28 / Fold change vs veh, ZNF28 / RFU, RNGTT / Fold change vs veh, RNGTT / RFU, OGT / Fold change vs veh, OGT / RFU, BRD1 / Fold change vs veh, BRD1 / RFU, MARS / Fold change vs veh, MARS / RFU, ZNF655 / Fold change vs veh, ZNF655 / RFU, FAHD1 / Fold change vs veh, FAHD1 / RFU, BDP1 / Fold change vs veh, BDP1 / RFU, LRRCC1 / Fold change vs veh, LRRCC1 / RFU, ARID1A / Fold change vs veh, ARID1A / RFU, ZNF146 / Fold change vs veh, ZNF146 / RFU, ZNF330 / Fold change vs veh, ZNF330 / RFU, GPN3 / Fold change vs veh, GPN3 / RFU, C9orf123 / Fold change vs veh, C9orf123 / RFU, N4BP2L2 / Fold change vs veh, N4BP2L2 / RFU, ARFIP1 / Fold change vs veh, ARFIP1 / RFU, FAM179B / Fold change vs veh, FAM179B / RFU, BCL10 / Fold change vs veh, BCL10 / RFU, UHRF1BP1L / Fold change vs veh, UHRF1BP1L / RFU, BET1 / Fold change vs veh, BET1 / RFU, CNOT2 / Fold change vs veh, CNOT2 / RFU, ZNF268 / Fold change vs veh, ZNF268 / Fold change vs veh, ZNF507 / RFU, DGCR2 / Fold change vs veh, DGCR2 / RFU, WDSUB1 / Fold change vs veh, WDSUB1 / Fold change vs veh, HSP90B1 /// MIR3652 / RFU, ADSS / Fold change vs veh, ADSS / RFU, GK / Fold change vs veh, GK / RFU, ZNF148 / Fold change vs veh, ZNF148 / RFU, TAF9 / Fold change vs veh, TAF9 / RFU, SLC1A5 / Fold change vs veh, SLC1A5 / RFU, SLMO2 / Fold change vs veh, SLMO2 / RFU, ABCC4 / Fold change vs veh, ABCC4 / RFU, LOC101060439 /// RAP1B / Fold change vs veh, LOC101060439 /// RAP1B / RFU, RFX7 / Fold change vs veh, RFX7 / RFU, GTPBP10 / Fold change vs veh, GTPBP10 / RFU, CNEP1R1 / Fold change vs veh, CNEP1R1 / RFU, BIVM-ERCC5 /// ERCC5 / Fold change vs veh, BIVM-ERCC5 /// ERCC5 / RFU, ILF3 / Fold change vs veh, ILF3 / RFU 11762660_at / Fold change /veh 11762660_at / RFU VCAN (11757783_s_at) / Fold change /veh VCAN (11757783_s_at) / RFU DDX43 (11728927_at) / Fold change /veh DDX43 (11728927_at) / RFU KRT8 (11758188_x_at) / Fold change /veh KRT8 (11758188_x_at) / RFU NKD1 (11759106_at) / Fold change /veh NKD1 (11759106_at) / RFU SRD5A1 (11742802_a_at) / Fold change /veh SRD5A1 (11742802_a_at) / RFU TPSAB1 /// TPSB2 (11721975_s_at) / Fold change /veh TPSAB1 /// TPSB2 (11721975_s_at) / RFU GSTM3 (11746129_a_at) / Fold change /veh GSTM3 (11746129_a_at) / RFU IL23R (11737362_x_at) / Fold change /veh IL23R (11737362_x_at) / RFU TMEM51 (11727254_a_at) / Fold change /veh TMEM51 (11727254_a_at) / RFU PIWIL2 (11732686_x_at) / Fold change /veh PIWIL2 (11732686_x_at) / RFU ORM1 (11744905_x_at) / Fold change /veh ORM1 (11744905_x_at) / RFU CCDC152 (11743942_at) / Fold change /veh CCDC152 (11743942_at) / RFU ECM1 (11717891_a_at) / Fold change /veh ECM1 (11717891_a_at) / RFU IL23R (11748794_a_at) / Fold change /veh IL23R (11748794_a_at) / RFU TNFAIP8L3 (11732012_x_at) / Fold change /veh TNFAIP8L3 (11732012_x_at) / RFU MBOAT4 (11741988_at) / Fold change /veh MBOAT4 (11741988_at) / RFU 11764193_at / Fold change /veh 11764193_at / RFU TMEM53 (11763286_at) / Fold change /veh TMEM53 (11763286_at) / RFU MAGEB2 (11727129_at) / Fold change /veh MAGEB2 (11727129_at) / RFU TMEM200A (11744735_a_at) / Fold change /veh TMEM200A (11744735_a_at) / RFU CCDC152 (11751479_a_at) / Fold change /veh CCDC152 (11751479_a_at) / RFU FAM211A (11726209_a_at) / Fold change /veh FAM211A (11726209_a_at) / RFU RGS16 (11746705_a_at) / Fold change /veh RGS16 (11746705_a_at) / RFU VCAN (11755009_s_at) / Fold change /veh VCAN (11755009_s_at) / RFU RHOB (11743442_s_at) / Fold change /veh RHOB (11743442_s_at) / RFU RGS16 (11720943_a_at) / Fold change /veh RGS16 (11720943_a_at) / RFU RGS16 (11720944_at) / Fold change /veh RGS16 (11720944_at) / RFU, VPS4B / Fold change vs veh, VPS4B / RFU, CREB1 / Fold change vs veh, CREB1 / RFU, DNAJC13 / Fold change vs veh, DNAJC13 / RFU, GNAQ / Fold change vs veh, GNAQ / RFU, CDK5R1 / Fold change vs veh, CDK5R1 / RFU, ZRANB3 / Fold change vs veh, ZRANB3 / RFU, CUL4A / Fold change vs veh, CUL4A / RFU, CCNY / Fold change vs veh, CCNY / RFU, UFL1 / Fold change vs veh, UFL1 / RFU, COG3 / Fold change vs veh, COG3 / RFU, DIAPH2 / Fold change vs veh, DIAPH2 / RFU, SKA2 / Fold change vs veh, SKA2 / RFU, AFF3 / Fold change vs veh, AFF3 / RFU, LMF1 / Fold change vs veh, LMF1 / RFU, IPO11 / Fold change vs veh, IPO11 / RFU, DFFB / Fold change vs veh, DFFB / RFU, FOXP1 / Fold change vs veh, FOXP1 / RFU, CARD8 / Fold change vs veh, CARD8 / RFU, STRN3 / Fold change vs veh, STRN3 / RFU, ADK / Fold change vs veh, ADK / RFU, RASSF2 / Fold change vs veh, RASSF2 / RFU, WIPF1 / Fold change vs veh, WIPF1 / RFU, LARP1B / Fold change vs veh, LARP1B / RFU, RASA1 / Fold change vs veh, RASA1 / RFU, RB1 / Fold change vs veh, RB1 / RFU, PPFIA1 / Fold change vs veh, PPFIA1 / RFU, MAT2A / Fold change vs veh, MAT2A / RFU, CCT5 / Fold change vs veh, CCT5 / RFU, WDR92 / Fold change vs veh, WDR92 / RFU, CUX1 / Fold change vs veh, CUX1 / RFU, TTC7A / Fold change vs veh, TTC7A / RFU, TMEM135 / Fold change vs veh, TMEM135 / RFU, DEPTOR / Fold change vs veh, DEPTOR / RFU, CPM / Fold change vs veh, CPM / RFU, DNAJB6 / Fold change vs veh, DNAJB6 / RFU, CACNA2D3 / Fold change vs veh, CACNA2D3 / RFU, DTX4 / Fold change vs veh, DTX4 / RFU, TFCP2 / Fold change vs veh, TFCP2 / RFU, GMCL1 /// GMCL1P1 / Fold change vs veh, GMCL1 /// GMCL1P1 / RFU, AEBP2 / Fold change vs veh, AEBP2 / RFU, SNHG1 /// SNORD22 /// SNORD25 /// SNORD26 /// SNORD27 /// SNORD28 /// SNORD29 /// SNORD31 / Fold change vs veh, SNHG1 /// SNORD22 /// SNORD25 /// SNORD26 /// SNORD27 /// SNORD28 /// SNORD29 /// SNORD31 / Fold change (Aza/veh), C12orf56 (ProbeSet 11735607_a_at) / Fold change (ACY-1035/veh), C12orf56 (ProbeSet 11735607_a_at) / Fold change (Aza/veh), FGFR1OP (ProbeSet 11751329_s_at) / Fold change (ACY-1035/veh), FGFR1OP (ProbeSet 11751329_s_at) / Fold change (Aza/veh), VPS36 (ProbeSet 11739960_a_at) / Fold change (ACY-1035/veh), VPS36 (ProbeSet 11739960_a_at) / RFU SYPL1 (11715823_x_at) / Fold change /veh SYPL1 (11715823_x_at) / RFU IGFBP7 (11715501_s_at) / Fold change /veh IGFBP7 (11715501_s_at) / RFU REEP3 (11722064_at) / Fold change /veh REEP3 (11722064_at) / RFU IGLL1 (11728026_x_at) / Fold change /veh IGLL1 (11728026_x_at): dose or concentration left out as unconfirmed
# Settings: MV-4-11 cells, 48 hours
compound,measurement,value
Nc1ncn([C@@H]2O[C@H](CO)[C@@H](O)[C@H]2O)c(=O)n1 [azacitidine],RFU VCAN (11748164_a_at),5.82 RFU
